The record followed here is patent US7153852B2, “Indole compounds, process for producing the same and drugs containing the same as the active ingredient” (Ono Pharmaceutical Co., Ltd., priority 2001, dated 2006).

For this test, the target named is T1, mouse DP receptors (Mus musculus, UniProt P70263).
T1 construct: expressed in transfected cells; host or cells: CHO cells (membrane preparation)
T1 sequence (P70263 1-357): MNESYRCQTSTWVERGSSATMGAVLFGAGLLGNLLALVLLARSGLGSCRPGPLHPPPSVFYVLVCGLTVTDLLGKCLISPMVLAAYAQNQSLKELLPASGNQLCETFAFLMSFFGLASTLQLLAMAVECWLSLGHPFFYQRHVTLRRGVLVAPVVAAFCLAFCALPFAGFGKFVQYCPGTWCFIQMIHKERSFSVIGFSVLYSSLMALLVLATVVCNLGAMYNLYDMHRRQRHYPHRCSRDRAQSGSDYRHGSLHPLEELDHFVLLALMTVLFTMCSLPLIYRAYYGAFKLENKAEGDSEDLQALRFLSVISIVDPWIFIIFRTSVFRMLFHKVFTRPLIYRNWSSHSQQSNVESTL
In words: Receptor binding test using prostanoid DP receptor-expressing cells (3H-PGD2 binding inhibition). Conditions: membrane of CHO cells expressing mouse DP receptors; 3H-PGD2 2.5 nmol/L; Ki=IC50/(1+([L]*/Kd)). On the procedure:
(i) Receptor Binding Test Using Prostanoid DP Receptor-Expressing Cells
CHO cells expressing mouse DP receptors were prepared according to the method of Hirata et al. (Proc. Natl. Acad. Sci., 91, 11192–11196 (1994)) and used as a membrane standard.
A reaction solution (200 μL) containing the prepared membrane standard (30–166 μg) and ^3H-PGD2 was incubated at room temperature for 20 minutes. The reaction was stopped with an ice-cold buffer (1 mL) and the binding ^3H-PGD2 was trapped in on a glass filter by immediate aspiration-filtration under a reduced pressure, and its binding radioactivity was measured using a liquid scintillation counter.
Kd value and Bmax value were obtained from Scatchard plots (Ann. N. Y. Acad. Sci., 51, 660 (1949)]. Non-specific binding was obtained as the binding radioactivity in the presence of unlabeled PGD2 at an excess amount (10 μmol/L). 3H-PGD2 binding inhibition by the compound of the present invention was measured by adding ^3H-PGD2 (2.5 nmol/L) and the compound of the present invention as various concentrations. Also, the following buffers were used for the reactions.
The dissociation constant (Ki) (μmol/L) of each compound was obtained by the following equation. Ki=IC50/(1+([L]*/Kd)) • [L*]: Concentration of radioligand

With `Cc1cc2c(CC(=O)O)cccc2n1C(=O)c1ccc(OC[C@H]2Cc3ccccc3O2)cc1` [2(16), 1-(4-((2R)-2,3-dihydrobenzofuran-2-ylmethoxy)benzoyl)-2-methyl-1H-indol-4-ylacetic acid], the Ki – broadly, the dissociation constant of the complex between target and ligand, obtained from inhibition or displacement – came out at 31 nM.
